Entries after “also recorded” stand apart in the source; their conditions may differ. Like-named read-outs stand apart in the source and are kept apart here. Values belong to the compound of their own block, whether it stands above or below them.
Key:
Format in all cases: biochemical
human 15-PGDH [1] = target: T1, human 15-PGDH (Homo sapiens, UniProt P15428); assay: qHTS and 24-point re-test: fluorescence assay of NAD+ reduction to NADH on PGE2 oxidation (PubChem AID 894); conditions: read-out: qHTS IC50
T1 construct: comprising residues 3–256 of the human HPGD gene (GenBank identifier: 1203982); His6 (GHHHHHH, behind the TEV site) (C, cleaved yes); made in house; host or cells: E. coli BL21(DE3)-R3
T1 sequence (P15428 3-256): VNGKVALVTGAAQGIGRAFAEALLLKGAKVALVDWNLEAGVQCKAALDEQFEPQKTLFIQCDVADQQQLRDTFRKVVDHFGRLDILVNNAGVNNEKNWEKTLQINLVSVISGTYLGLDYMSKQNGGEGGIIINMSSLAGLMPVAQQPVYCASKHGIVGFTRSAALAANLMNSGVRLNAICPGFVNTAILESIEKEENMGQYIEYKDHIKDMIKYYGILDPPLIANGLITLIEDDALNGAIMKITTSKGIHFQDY
In short: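 NADH fluorescence (ex 340/em 450 nm) followed kinetically over a 2-min initial rate. Data normalized to no-enzyme and no-compound controls; four-parameter Hill fit.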

human 15-PGDH [2] = target: T1, human 15-PGDH; assay: Substrate (PGE2) and cofactor (NAD+) titrations, mechanism of action, global fitting; conditions: for Competitive (CM), fit residual Chi^2 value / Mixed-mode (MM), fit residual Chi^2 value / Noncompetitive (NM), fit residual Chi^2 value / Uncompetitive (UM), fit residual Chi^2 value: global fitting; for Titration of NAD^+ K m / Titration of NAD^+ V max [µmol/(min×mg)] / Titration of NAD^+ k cat/K m[×10^6] / Titration of NAD^+ k cat[1/sec]: 30 µM PGE2
Procedure: Kinetic studies were performed in 100 mM Tris buffer pH 8.0, containing 0.01% Tween-20 and 10 nM 15-PGDH enzyme. […] All inhibitor compounds were dissolved in 10% (v/v) DMSO at varying concentrations from which they were applied at 1∶5 ratio (resulting in a final concentration of 2% (v/v) DMSO in all assays). For each experiment an aliquot of purified enzyme was thawed freshly and pre-diluted to 10 µM in buffer I (5 mM Tris/HCl, pH 8.0, 150 mM NaCl, 0.01% Tween-20). All experiments were performed in white 384-well PCR microplates (Bio-Rad Laboratories, Inc.) in final assay volumes of 20 µL. Twelve-point compound titrations were set up from serially diluted stock solutions in 10% (v/v) DMSO. […] The initial rates recorded in compound titrations were plotted against -log[compound], and non-linear regression (Levenberg-Marquardt) fitting of the dose-response curve to the Hill equation [47] was performed to derive the IC50, using PRISM 5.0 (GraphPad Software, Inc.). For substrate/cofactor titrations, curves with initial rates plotted against the concentration of substrate or cofactor were fitted to the Michaelis-Menten equation, to derive maximal activities, V max, and Michaelis constants, K m. Fitting qualities were judged from the goodness of fit (R^2>0.98).

ALDH1A1 = target: T2, ALDH1A1 (Homo sapiens, UniProt P00352); assay: Selectivity screen, aldehyde dehydrogenase 1 (PubChem Assay ID 1030)
T2 sequence (P00352 1-501): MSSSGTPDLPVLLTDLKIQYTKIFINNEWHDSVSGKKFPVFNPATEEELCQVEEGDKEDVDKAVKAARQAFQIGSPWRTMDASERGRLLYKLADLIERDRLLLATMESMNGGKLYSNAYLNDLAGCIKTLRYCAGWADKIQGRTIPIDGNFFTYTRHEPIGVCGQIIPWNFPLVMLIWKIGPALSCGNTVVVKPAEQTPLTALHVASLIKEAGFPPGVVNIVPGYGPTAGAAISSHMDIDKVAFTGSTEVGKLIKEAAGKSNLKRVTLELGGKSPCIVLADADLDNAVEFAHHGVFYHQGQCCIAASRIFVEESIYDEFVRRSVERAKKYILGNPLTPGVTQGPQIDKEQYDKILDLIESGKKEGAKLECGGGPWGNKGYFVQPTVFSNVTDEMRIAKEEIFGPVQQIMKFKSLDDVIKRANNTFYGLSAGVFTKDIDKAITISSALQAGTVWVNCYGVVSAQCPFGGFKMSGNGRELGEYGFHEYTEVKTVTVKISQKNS
Procedure: The list also includes two SDR enzymes, hydroxyacyl dehydrogenase (HADH2, also known as type-10 hydroxysteroid dehydrogenase, HSD17β10; PubChem Assay ID 886) and type-4 hydroxysteroid dehydrogenase (HSD17β4; PubChem Assay ID 893), and a medium-chain dehydrogenase/reductase (MDR), aldehyde dehydrogenase 1 (ALDH1A1; PubChem Assay ID 1030), each of which was tested using a similar experimental protocol to that used for 15-PGDH.

[3] = NAD+ titration, inhibitor 20 nM
[4] = PGE2 titration, inhibitor 10 nM
[5] = top concentration 57.5 µM, PubChem Assay ID 1030, read-out: IC50/nM ALDH1A1

- IC50 (human 15-PGDH [1]): 0.056 µM
- decrease of K m for NAD+ (human 15-PGDH [2]; [3]): ~45%
- decrease of V max (human 15-PGDH [2]; [3]): approximately 60%
- Sum-of-squares F-test p, UM vs. MM (human 15-PGDH [2]; NAD^+ titration): UM vs. MM:p = 0.0654
- Sum-of-squares F-test p, NM vs. MM (human 15-PGDH [2]; PGE2 titration): NM vs. MM:p = 0.0017
- Sum-of-squares F-test p, UM vs. MM (human 15-PGDH [2]; PGE2 titration): UM vs. MM:p = 0.0133
- decrease of V max (human 15-PGDH [2]; [4]): 25%
- V max relative to no inhibitor (human 15-PGDH [2]; PGE2 titration, inhibitor 20 nM, in words): less than half
- Preferred mode of inhibition (human 15-PGDH [2]; PGE2 titration, rejection threshold p = 0.05): MM (MM, mixed-mode inhibition)
- Competitive (CM), fit residual Chi^2 value (human 15-PGDH [2]; NAD^+ titration): 0.8764
- Mixed-mode (MM), fit residual Chi^2 value (human 15-PGDH [2]; NAD^+ titration): 0.9675
- Noncompetitive (NM), fit residual Chi^2 value (human 15-PGDH [2]; NAD^+ titration): 0.9655
- Uncompetitive (UM), fit residual Chi^2 value (human 15-PGDH [2]; NAD^+ titration): 0.9664
- Competitive (CM), fit residual Chi^2 value (human 15-PGDH [2]; PGE2 titration): 0.8669
- Mixed-mode (MM), fit residual Chi^2 value (human 15-PGDH [2]; PGE2 titration): 0.9797
- Noncompetitive (NM), fit residual Chi^2 value (human 15-PGDH [2]; PGE2 titration): 0.9777
- Uncompetitive (UM), fit residual Chi^2 value (human 15-PGDH [2]; PGE2 titration): 0.9784
- mode of inhibition with respect to the cofactor NAD+ (human 15-PGDH [2]; in words): uncompetitively
- Titration of PGE2 K m (human 15-PGDH [2]; inhibitor 10.0 nM): 3.7 ± 0.5 µM
- Titration of PGE2 V max[µmol/(min×mg)] (human 15-PGDH [2]; inhibitor 10.0 nM): 21.3 µmol/min/mg
- Titration of PGE2 k cat/K m[×10^6] (human 15-PGDH [2]; inhibitor 10.0 nM): 2.8 ×10^6
- Titration of PGE2 k cat[1/sec] (human 15-PGDH [2]; inhibitor 10.0 nM): 10.3 ± 0.3 s⁻¹
- Titration of NAD^+ K m (human 15-PGDH [2]; inhibitor 10.0 nM): 10.7 ± 0.6 µM
- Titration of NAD^+ V max [µmol/(min×mg)] (human 15-PGDH [2]; inhibitor 10.0 nM): 17.5 µmol/min/mg
- Titration of NAD^+ k cat/K m[×10^6] (human 15-PGDH [2]; inhibitor 10.0 nM): 0.8 ×10^6
- Titration of NAD^+ k cat[1/sec] (human 15-PGDH [2]; inhibitor 10.0 nM): 8.5 ± 0.1 s⁻¹
- Titration of PGE2 K m (human 15-PGDH [2]; inhibitor 20.0 nM): 2.8 ± 0.4 µM
- Titration of PGE2 V max[µmol/(min×mg)] (human 15-PGDH [2]; inhibitor 20.0 nM): 12.6 µmol/min/mg
- Titration of PGE2 k cat/K m[×10^6] (human 15-PGDH [2]; inhibitor 20.0 nM): 2.1 ×10^6
- Titration of PGE2 k cat[1/sec] (human 15-PGDH [2]; inhibitor 20.0 nM): 6.1 ± 0.2 s⁻¹
- Titration of NAD^+ K m (human 15-PGDH [2]; inhibitor 20.0 nM): 8.9 ± 0.8 µM
- Titration of NAD^+ V max [µmol/(min×mg)] (human 15-PGDH [2]; inhibitor 20.0 nM): 8.2 µmol/min/mg
- Titration of NAD^+ k cat/K m[×10^6] (human 15-PGDH [2]; inhibitor 20.0 nM): 0.4 ×10^6
- Titration of NAD^+ k cat[1/sec] (human 15-PGDH [2]; inhibitor 20.0 nM): 4.0 ± 0.1 s⁻¹
- Emax (ALDH1A1; ALDH1A1, footnote of Table 3, read-out: Maximal response, inhibition): 70%
- IC50 (ALDH1A1; ALDH1A1, shallow curve, read-out: approximate IC50): ~36000 nM
- IC50 (ALDH1A1; [5]): 36000 nM
Compound: Cc1cccc(-n2cnc3cc(C(=O)N4CCCCC4)ccc32)c1 [Compound 13, [1-(3-methylphenyl)-1H-benzimidazol-5-yl)(piperidin-1-yl)methanone]
- mode of inhibition with respect to the substrate PGE2 (human 15-PGDH [2]; in words): noncompetitive, uncompetitive or mixed-modes; also recorded: noncompetitively or in a mixed-type mode

- IC50 (human 15-PGDH [1]): 0.089 µM
- Sum-of-squares F-test p, NM vs. MM (human 15-PGDH [2]; PGE2 titration): NM vs. MM:p = 0.3515
- effect on the K m (human 15-PGDH [2]; PGE2 titration, in words): no effect
- decrease of V max (human 15-PGDH [2]; [4]): approximately 50%
- Competitive (CM), fit residual Chi^2 value (human 15-PGDH [2]; PGE2 titration): 0.9299
- Mixed-mode (MM), fit residual Chi^2 value (human 15-PGDH [2]; PGE2 titration): 0.9736
- Noncompetitive (NM), fit residual Chi^2 value (human 15-PGDH [2]; PGE2 titration): 0.9734
- Uncompetitive (UM), fit residual Chi^2 value (human 15-PGDH [2]; PGE2 titration): 0.9680
- mode of inhibition with respect to the substrate PGE2 (human 15-PGDH [2]; in words): noncompetitive or mixed-type
- Titration of PGE2 K m (human 15-PGDH [2]; inhibitor 4.0 nM): 5.6 ± 1.1 µM
- Titration of PGE2 V max[µmol/(min×mg)] (human 15-PGDH [2]; inhibitor 4.0 nM): 22.8 µmol/min/mg
- Titration of PGE2 k cat/K m[×10^6] (human 15-PGDH [2]; inhibitor 4.0 nM): 2.0 ×10^6
- Titration of PGE2 k cat[1/sec] (human 15-PGDH [2]; inhibitor 4.0 nM): 11.1 ± 0.5 s⁻¹
- Titration of PGE2 K m (human 15-PGDH [2]; inhibitor 10.0 nM): 6.4 ± 0.6 µM
- Titration of PGE2 V max[µmol/(min×mg)] (human 15-PGDH [2]; inhibitor 10.0 nM): 15.4 µmol/min/mg
- Titration of PGE2 k cat/K m[×10^6] (human 15-PGDH [2]; inhibitor 10.0 nM): 1.2 ×10^6
- Titration of PGE2 k cat[1/sec] (human 15-PGDH [2]; inhibitor 10.0 nM): 7.5 ± 0.2 s⁻¹
- response against ALDH1A1 (ALDH1A1; in words): flat response
- IC50 (ALDH1A1; [5]): > 57500 nM
Compound: Cc1cc(-c2nnc3n2CCCCC3)c(C)n1-c1ccccc1 [Compound 72]

Source: publication PMC2970562, “High-Affinity Inhibitors of Human NAD^+-Dependent 15-Hydroxyprostaglandin Dehydrogenase: Mechanisms of Inhibition and Structure-Activity Relationships” (PLoS ONE, 2010)
